Measurements as given in PMC11597202, “Novel Thiazole-Fused [4,5-g] or [5,4-g]Quinazolin-8-ones and Their Quinazoline Analogues: Synthesis and Biological Evaluation” (Pharmaceuticals, 2024).

What was measured:
[1] = In vitro cytotoxic assay, MDA-MB-231; format: cell-based; details: human, MDA-MB-231 cells (breast cancer cell line); read-out: In vitro cytotoxic activity IC50, MBA-MB-231; also: 0.1-25 µM tested
Protocol: (§1) Skin normal fibroblastic cells were purchased from Lonza (Basel, Switzerland). […] All culture media were supplemented by 10% of FBS, 1% of penicillin–streptomycin and 2 mM glutamine.
(§2) Chemicals were solubilized in DMSO at a concentration of 10 mM (stock solution) and diluted in culture medium to the desired final concentrations. […] Cells were plated in 96-well plates (4000 cells/well). Twenty-four hours after seeding, the cells were exposed to chemicals. […] Image acquisition and analysis were performed using a Cellomics ArrayScan VTI/HCS Reader (ThermoScientific, Les Ulis, France). The survival percentages were calculated as the percentage of cell number after compound treatment over cell number after DMSO treatment. The relative IC50 values were calculated using the curve fitting XLfit 5.5.0.5 (idbs) integrated in Microsoft Excel as an add-on.
(§3) 4.3.1. Cell culture. Skin normal fibroblastic cells are purchased from Lonza (Basel, Switzerland). Huh7- […]
(§4) from ATCC (American Type Culture Collection). […]
(§5) supplemented by 10% of FBS, 1% of penicillin-streptomycin and 2 mM glutamine.
(§6) 4.3.2. Cytotoxic assay. Chemicals were solubilized in DMSO at a concentration of 10 mM (stock solution) and diluted in culture medium to the desired final concentrations. The dose effect cytotoxic assays (IC50 determination) were performed by increasing the concentrations of each chemical (final well […]
(§7) Cells were plated in 96-well plates
(§8) (4000 cells/well). Twenty-four hours after seeding, cells were exposed to chemicals. After 48h of treatment, cells were washed in PBS and fixed in cooled 90% ethanol/5% acetic acid for 20 min and the […]
(§9) Image acquisition and analysis were performed using a Cellomics ArrayScan VTI/HCS Reader (ThermoScientific). The survival percentages were calculated as the percentage of cell number after compound treatment over cell number after DMSO treatment. The relative IC50 were calculated using the curve fitting XLfit 5.5.0.5 (idbs) integrated in Microsoft Excel as an add-on. The 4 Parameter Logistic Model or Sigmoidal Dose-Response Model describing the sigmoid-shaped response pattern was used (fit = (A+[(B-A)/(1+[(C/x)^D])]) where fit is the response and X is the tested concentration of the compound. The lower asymptote is A (also referred to as the bottom of the curve or lower plateau or the min) and the upper asymptote is B (also referred to as the top of the curve or upper plateau or the max). The slope of the linear part of the curve is described by the factor D. The parameter C is the concentration corresponding to the response midway between A and B. C is called “relative IC50” because it refers to the maximum response obtained by a […]
(§10) The results are represented as the mean ± standard error (SE) calculated from at least three independent experiments.

[2] = In vitro cytotoxic assay, HCT-116; format: cell-based; details: human, HCT-116 cells (colon cancer cell line)
Protocol: as §1, §2, §3, §4, §5, §6, §7, §8, §9, §10

CLK1 = target: T1, CLK1 (Homo sapiens, UniProt P49759); assay: ADP-Glo kinase inhibition assay, CLK1; format: biochemical; details: percentage of maximum activity of the DMSO control, mean n = 2, 10 µM ATP, read-out: Residual activity CLK1; for remaining activity at 1 µM: 1 μM compound; for remaining activity at 10 µM: 10 μM compound
T1 construct: host or cells: Sf9 insect cells (baculovirus)
Protocol: (§11) Kinase enzymatic activities were assayed in 384-well plates using the ADP-Glo^TM assay kit (Promega, Madison, WI, USA) according to the recommendations of the manufacturer. This luminescent ADP detection assay was described by Zegzouti and co-workers and provides a homogeneous and high-throughput screening method to measure kinase activity by quantifying the amount of ADP produced during a kinase reaction. Briefly, the reactions were carried out in a final volume of 6 µL for 30 min at 30 °C in an appropriate kinase buffer (10 mM MgCl2, 1 mM EGTA, 1 mM DTT, 25 mM Tris-HCl pH 7.5, 50 µg/mL heparin), with peptide or protein as substrate in the presence of 10 µM ATP. Peptide substrates were obtained from ProteoGenix (Schiltigheim, France) or Sigma for Histone H1, Poly (L-glutamic acid–L-tyrosine) sodium salt, Casein and MBP. After that, 6 µL of ADP-Glo^TM Kinase Reagent was added to stop the kinase reaction. After an incubation time of 50 min at room temperature (rt), 12 µL of Kinase Detection Reagent was added for one hour at rt. The transmitted signal was measured using the Envision (PerkinElmer, Waltham, MA, USA) microplate luminometer and expressed as Relative Light Units (RLUs). Kinase activities are expressed as percentages of remaining kinase activities detected after treatment with 1 or 10 µM of the tested compounds. The maximum kinase activity was measured in the absence of inhibitor but with an equivalent dose of DMSO (solvent of the tested compounds).
(§12) 3. Kinase inhibition assays
(§13) Kinase enzymatic activities were assayed in 384-well plates using the ADP-GloTM assay kit (Promega, Madison, WI) according to the recommendations of the manufacturer. This luminescent ADP detection assay was described by Zegzouti and co-workers and provides a homogeneous and high-throughput screening method to measure kinase activity by quantifying the amount of ADP produced during a kinase reaction. Briefly, the reactions were carried out in a final volume of 6 µl for 30 min at 30°C in appropriate kinase buffer (10 mM MgCl2, 1 mM EGTA, 1 mM DTT, 25 mM Tris-HCl pH 7.5, 50 µg/mL heparin), with peptide or protein as substrate in the presence of 10 µM ATP. Peptide substrates were obtained from ProteoGenix (Schiltigheim, France) or Sigma for Histone H1, Poly (L-glutamic acid – L-tyrosine) sodium salt, Casein and MBP. After that, 6 µL of ADP-GloTM Kinase Reagent was added to stop the kinase reaction. After an incubation time of 50 min at room temperature (rt), 12 µL of Kinase Detection Reagent was added for 1 h at rt. The transmitted signal was measured using the Envision (PerkinElmer, Waltham, MA) microplate luminometer and expressed in Relative Light Unit (RLU). Kinase activities are expressed in percentages of remaining kinase activities detected after treatment with 1 or 10 µM of the tested compounds. The maximal kinase activity is measured in the absence of inhibitor but with an equivalent dose of DMSO (solvent of the tested compounds).
(§14) Table. Human protein kinases tested in the panel: CDK9, HASPIN, PIM1, GSK3b, CK1ε, JAK3, CLK1 […]
(§15) 1 Peptide substrates were obtained from ProteoGenix (Schiltigheim, France) or Sigma for Histone H1, Poly (L-glutamic acid – L-tyrosine) sodium salt, Casein and MBP; 2 “Sp” stands for phosphorylated serine.
(§16) Controls inhibitors: To validate each kinase assay, the following model inhibitors were used under the same conditions than the tested compounds: Staurosporine from Streptomyces sp.

[3] = In vitro cytotoxic assay, Huh7-D12; format: cell-based; details: human, Huh7-D12 cells (liver cancer cell line)
Protocol: as §1, §2, §3, §4, §5, §6, §7, §8, §9, §10

DYRK1A = target: T2, DYRK1A (Homo sapiens, UniProt Q13627); assay: ADP-Glo kinase inhibition assay, DYRK1A; format: biochemical; details: percentage of maximum activity of the DMSO control, mean n = 2, 10 µM ATP, read-out: Residual activity DYRK1A; for remaining activity at 1 µM: 1 μM compound; for remaining activity at 10 µM: 10 μM compound
T2 construct: host or cells: Sf9 insect cells (baculovirus)
Protocol: as §11, §12, §13, §14, §15, §16

T1 sequence (P49759 whole entry): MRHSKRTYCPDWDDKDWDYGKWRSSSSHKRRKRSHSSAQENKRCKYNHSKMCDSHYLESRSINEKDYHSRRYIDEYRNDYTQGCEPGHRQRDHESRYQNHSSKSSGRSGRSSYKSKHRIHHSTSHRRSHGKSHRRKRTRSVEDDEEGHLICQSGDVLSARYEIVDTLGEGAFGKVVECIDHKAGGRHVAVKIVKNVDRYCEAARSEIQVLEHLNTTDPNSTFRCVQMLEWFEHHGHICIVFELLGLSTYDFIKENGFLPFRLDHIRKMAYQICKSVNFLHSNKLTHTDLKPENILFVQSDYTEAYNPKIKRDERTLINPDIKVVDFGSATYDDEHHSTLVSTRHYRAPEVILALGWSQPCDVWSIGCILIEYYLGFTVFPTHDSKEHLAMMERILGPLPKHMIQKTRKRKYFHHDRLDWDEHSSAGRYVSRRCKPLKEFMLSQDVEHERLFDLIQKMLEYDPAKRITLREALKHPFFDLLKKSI

SMILES | IC50 at 48 h [1] [µM] | IC50 at 48 h [2] [µM] | remaining activity at 1 µM (CLK1) [%] | remaining activity at 10 µM (CLK1) [%] | IC50 at 48 h [3] [µM] | remaining activity at 1 µM (DYRK1A) [%] | remaining activity at 10 µM (DYRK1A) [%]
COC(=N)c1nc2cc3c(=O)n(Cc4ccccc4)cnc3cc2s1 [Compound 6a, Methyl 7-benzyl-8-oxo-7,8-dihydrothiazolo[4,5-g]quinazoline-2-carbimidate] | 20 | 20 | 97 | 96 | > 25 | 100 | 103
COC(=N)c1nc2cc3ncn(Cc4ccccc4)c(=O)c3cc2s1 [Compound 6b, Methyl 7-benzyl-8-oxo-7,8-dihydrothiazolo[5,4-g]quinazoline-2-carbimidate] | 3 | 1 | 100 | 102 | 1 | 103 | 109
COC(=N)c1nc2c(ccc3c(=O)n(Cc4ccccc4)cnc32)s1 [Compound 6c, Methyl 7-benzyl-6-oxo-6,7-dihydrothiazolo[5,4-h]quinazoline-2-carbimidate] | 13 | 3 | 95 | 84 | 10 | 100 | 68
COC(=N)c1nc2ccc3c(=O)n(Cc4ccccc4)cnc3c2s1 [Compound 6d, Methyl 7-benzyl-6-oxo-6,7-dihydrothiazolo[4,5-h]quinazoline-2-carbimidate] | 11 | 2 | 89 | 73 | 9 | 83 | 63
COC(=N)c1nc2cc3c(Nc4ccc(OC)cc4F)ncnc3cc2s1 [Compound 15a, Methyl 8-[(2-fluoro-4-methoxyphenyl)amino]thiazolo[4,5-g]quinazoline-2-carbimidate] | 9 | 8 | 89 | 52 | 8 | 72 | 27
COC(=N)c1nc2cc3ncnc(Nc4ccc(OC)cc4F)c3cc2s1 [Compound 15b, Methyl 8-[(2-fluoro-4-methoxyphenyl)amino]thiazolo[5,4-g]quinazoline-2-carbimidate] | – | – | 102 | 105 | – | 95 | 101
COC(=N)c1nc2ccc3ncn(Cc4ccccc4)c(=O)c3c2s1 [Compound I, methyl 8-benzyl-9-oxo-8,9-dihydrothiazolo[5,4-f]quinazoline-2-carbimidate, reference compound] | 21 | 18 | 75 | 27 | 15 | 62 | 21
COC(=N)c1nc2ccc3ncnc(Nc4ccc(OC)cc4F)c3c2s1 [Compound II, methyl 9-[(2-fluoro-4-methoxyphenyl)amino]thiazolo[5,4-f]quinazoline-2-carbimidate, reference compound] | 5 | 4 | – | – | 5 | – | –
